Test systems include A549; HCC 2998; HCT-15; Hs-578T; IGROV-1; KM12; LOX IMVI; MCF7; MDA-MB-435; Malme-3M; NCI-H226; OVCAR-5; OVCAR-8; PC-3; SK-OV-3; SN12C; SNB-19; SNB-75; SW-620; T47D.
Assay in all cases: NCI anticancer screen, dose series, 48 h

These results are taken from ChEMBL document CHEMBL1201862, “PubChem BioAssay data set” (2004).

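A five-concentration, 48-hour dose response in 96-well plates underlies each endpoint, interpolated linearly between surrounding concentrations. At the GI50, growth is halved.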 Active and inactive are the calls of the source. Cut-off read from the data, not from the text of the source: active = GI50 up to about 1.1 µM and inactive = higher. Bounds are passed on as bounds.

With `Nc1n[nH]c2c(C(=O)Nc3ccc(Cl)cc3)c(N)n(N)c(=O)c12`, the GI50 was > 100 µM (inactive) with A549; > 100 µM (inactive) in the experiment with HCC 2998; over 100 µM with HCT-15; > 100 µM (inactive) in the experiment with Hs-578T; > 100 µM (inactive) in the experiment on IGROV-1; > 100 µM (inactive) in the experiment on KM12. In addition, the GI50 in the experiment on LOX IMVI, in the experiment with MCF7, in the experiment with MDA-MB-435, with Malme-3M, with NCI-H226 and with OVCAR-5 was > 100 µM (inactive) throughout. Also, the GI50 with OVCAR-8, in the experiment with PC-3, in the experiment on SK-OV-3, in the experiment on SN12C, in the experiment on SNB-19 and with SNB-75 was > 100 µM (inactive) each time. Moreover, the GI50 with SW-620 and with T47D was > 100 µM (inactive) each time.

Consider `c1csc(-c2cc(-c3cccs3)c(-c3cccs3)s2)c1`, for which the GI50 was > 100 µM (inactive) in the experiment with A549; 58.5 µM (inactive) with HCC 2998; 49.8 µM in the experiment on HCT-15; > 100 µM (inactive) in the experiment on Hs-578T; > 100 µM (inactive) in the experiment on IGROV-1; 46.5 µM (inactive) in the experiment on KM12. Also, the GI50 was 18.5 µM (inactive) in the experiment with MCF7; 37.8 µM (inactive) in the experiment on MDA-MB-435; 62.2 µM (inactive) with Malme-3M; > 100 µM (inactive) in the experiment with NCI-H226; > 100 µM (inactive) with OVCAR-5; > 100 µM (inactive) with OVCAR-8. Further, the GI50 with PC-3 was > 100 µM (inactive); in the experiment on SK-OV-3 it was > 100 µM (inactive); in the experiment with SN12C, > 100 µM (inactive); in the experiment with SNB-19 it was > 100 µM (inactive); in the experiment on SNB-75, 21.2 µM (inactive); in the experiment on SW-620, > 100 µM (inactive). In addition, the GI50 in the experiment on T47D was 4.69 µM (inactive).

With `CC(=O)OCC1OC(Nc2ccc3nc(C)n(-c4ccccc4)c(=O)c3c2)C(OC(C)=O)C(OC(C)=O)C1OC(C)=O` (stereo not given), the GI50 in the experiment on HCC 2998 is > 50 µM (inactive); in the experiment on HCT-15, over 50 µM; in the experiment on Hs-578T it was > 50 µM (inactive); with IGROV-1, > 50 µM (inactive); in the experiment on KM12, > 50 µM (inactive); with LOX IMVI, 42.8 µM (inactive). For the same compound, the GI50 in the experiment on MCF7, with MDA-MB-435, in the experiment on Malme-3M, in the experiment on NCI-H226, with OVCAR-5 and in the experiment on OVCAR-8 was > 50 µM (inactive) throughout. Further, the GI50 with PC-3, with SN12C, in the experiment on SNB-19, in the experiment with SNB-75, in the experiment on SW-620 and with T47D was > 50 µM (inactive) each time.

With `CNC(=O)[C@H](Cc1ccccc1)NC(=O)N(CCC#N)CCN(C(=O)N[C@@H](Cc1ccccc1)C(=O)OC)c1ccccc1`, the GI50 in the experiment on A549 was > 100 µM (inactive); with HCC 2998, > 10 µM (inactive); in the experiment with HCT-15, over 100 µM; in the experiment on Hs-578T, > 100 µM (inactive); in the experiment on KM12 it was > 100 µM (inactive); in the experiment on LOX IMVI, > 100 µM (inactive). Moreover, the GI50 in the experiment with MCF7 was 15.7 µM (inactive); with MDA-MB-435, > 100 µM (inactive); with Malme-3M it was > 100 µM (inactive); in the experiment with NCI-H226, > 100 µM (inactive); in the experiment with OVCAR-5, > 100 µM (inactive); with OVCAR-8, > 100 µM (inactive). Also, the GI50 with PC-3 is > 100 µM (inactive); with SK-OV-3, > 100 µM (inactive); in the experiment with SNB-19 it was > 100 µM (inactive); with SNB-75, 16.6 µM (inactive); in the experiment with SW-620 it was > 100 µM (inactive); with T47D it was > 100 µM (inactive).

Turning to `COCCCNC(=O)C1=C(C)NC(C)=C(C(=O)NCCCOC)C1`, the GI50 in the experiment on A549 was > 100 µM (inactive); in the experiment with HCC 2998, > 100 µM (inactive); in the experiment with Hs-578T, 86.5 µM (inactive); in the experiment on IGROV-1, 11.3 µM (inactive); in the experiment on KM12, > 100 µM (inactive); in the experiment on LOX IMVI, > 100 µM (inactive). Moreover, the GI50 in the experiment on MCF7 is > 100 µM (inactive); with MDA-MB-435, > 100 µM (inactive); with Malme-3M, 18.1 µM (inactive); in the experiment on NCI-H226 it was > 100 µM (inactive); in the experiment on OVCAR-5, > 100 µM (inactive); with OVCAR-8, > 100 µM (inactive). Also, the GI50 in the experiment on PC-3 was > 100 µM (inactive); in the experiment on SK-OV-3, > 100 µM (inactive); with SN12C, > 100 µM (inactive); with SNB-19 it was > 100 µM (inactive); with SNB-75, 21 µM (inactive); in the experiment on SW-620, > 100 µM (inactive). For the same compound, in the experiment with T47D, the GI50 was > 100 µM (inactive).

In the case of `O=C1NC(N2CCCC(CO)C2)=N/C1=C\c1ccc(O)cc1` (stereo not given), the GI50 in the experiment on A549 is > 100 µM (inactive); in the experiment with HCC 2998, > 100 µM (inactive); with HCT-15, over 100 µM; with Hs-578T, > 100 µM (inactive); with IGROV-1 it was > 100 µM (inactive); with KM12, > 100 µM (inactive). Moreover, the GI50 with LOX IMVI, with MCF7, with MDA-MB-435, in the experiment with Malme-3M, in the experiment with NCI-H226 and with OVCAR-5 was > 100 µM (inactive) throughout. Also, the GI50 in the experiment with OVCAR-8, in the experiment with PC-3, in the experiment with SK-OV-3, in the experiment with SN12C, in the experiment on SNB-19 and in the experiment on SNB-75 was > 100 µM (inactive) throughout. In addition, the values for the GI50 in the experiment on SW-620 and with T47D were > 100 µM (inactive) and 42 µM (inactive), respectively.

Consider `COc1ccc(OC)c(NS(=O)(=O)c2ccc3nc(C)n(NS(=O)(=O)c4cc(OC)ccc4OC)c(=O)c3c2)c1`, for which the GI50 with HCC 2998 was 38.6 µM (inactive); in the experiment on HCT-15, over 100 µM; in the experiment on Hs-578T, > 100 µM (inactive); with IGROV-1, > 100 µM (inactive); with KM12, 62.5 µM (inactive); in the experiment on LOX IMVI it was 77.6 µM (inactive). Moreover, the GI50 in the experiment on MCF7 was 87.1 µM (inactive); with MDA-MB-435 it was 14.3 µM (inactive); in the experiment on Malme-3M, > 100 µM (inactive); with NCI-H226, > 100 µM (inactive); in the experiment on OVCAR-5, > 100 µM (inactive); in the experiment with OVCAR-8, > 100 µM (inactive). Also, the GI50 in the experiment with PC-3 is 78.9 µM (inactive); in the experiment with SK-OV-3, > 100 µM (inactive); in the experiment on SN12C, > 100 µM (inactive); in the experiment on SNB-19, > 100 µM (inactive); in the experiment with SNB-75, > 100 µM (inactive); in the experiment with SW-620 it was 96.4 µM (inactive). Moreover, in the experiment on T47D, the GI50 is > 100 µM (inactive).

As for `Cc1nc2ccccc2c(-n2cccn2)c1CCn1cccn1`, the GI50 with A549 is > 100 µM (inactive); in the experiment on HCC 2998, > 100 µM (inactive); in the experiment on HCT-15 it was over 100 µM; with Hs-578T it was > 100 µM (inactive); in the experiment on IGROV-1, 85.9 µM (inactive); in the experiment on KM12 it was > 100 µM (inactive). Besides, the GI50 in the experiment with LOX IMVI was 50.6 µM (inactive); in the experiment on MCF7, > 100 µM (inactive); in the experiment with MDA-MB-435, > 100 µM (inactive); in the experiment with Malme-3M it was > 100 µM (inactive); in the experiment on NCI-H226, > 100 µM (inactive); in the experiment on OVCAR-5, > 100 µM (inactive). Also, the GI50 in the experiment on OVCAR-8, with PC-3, in the experiment on SK-OV-3, in the experiment on SN12C, in the experiment on SNB-19 and in the experiment with SW-620 was > 100 µM (inactive) in each case. For the same compound, the GI50 with T47D is > 100 µM (inactive).

As to `CC(=O)C(=[N+]=[N-])C(=O)OCCOC(=O)C(=[N+]=[N-])C(C)=O`, the GI50 is > 1 µM (active) with A549; > 1 µM (active) with HCC 2998; over 1 µM in the experiment on HCT-15; > 1 µM (active) in the experiment on Hs-578T; > 1 µM (active) in the experiment on IGROV-1; > 1 µM (active) with KM12. Besides, the GI50 in the experiment on LOX IMVI, in the experiment on MCF7, in the experiment with MDA-MB-435, in the experiment on Malme-3M, in the experiment with NCI-H226 and in the experiment with OVCAR-5 was > 1 µM (active) throughout. Also, the GI50 in the experiment with OVCAR-8, with PC-3, in the experiment on SK-OV-3, in the experiment with SN12C, in the experiment with SNB-19 and with SNB-75 was > 1 µM (active) throughout. In the experiment on T47D, the GI50 was > 1 µM (active).

For the compound `OC1CN=C2c3ccccc3C(O)(c3ccc(Cl)cc3)N2C1` (stereo not given), the GI50 in the experiment with A549 is > 100 µM (inactive); in the experiment with HCC 2998, 17.1 µM (inactive); in the experiment on Hs-578T, 88.5 µM (inactive); with IGROV-1 it was 87.9 µM (inactive); in the experiment on KM12 it was 52.4 µM (inactive); in the experiment on LOX IMVI it was 45.4 µM (inactive). The GI50 was 48.2 µM (inactive) in the experiment on MCF7; 65.8 µM (inactive) in the experiment with MDA-MB-435; 31.7 µM (inactive) with Malme-3M; 83.4 µM (inactive) in the experiment with NCI-H226; 27 µM (inactive) in the experiment on OVCAR-5; 77.4 µM (inactive) in the experiment with OVCAR-8. The GI50 in the experiment with PC-3 was 41.9 µM (inactive); with SK-OV-3, 69.5 µM (inactive); with SN12C, 57.7 µM (inactive); with SNB-19 it was 60 µM (inactive); in the experiment on SNB-75, 19.8 µM (inactive); in the experiment on SW-620 it was > 100 µM (inactive). For the same compound, the GI50 in the experiment with T47D is > 100 µM (inactive).
